Experimental data reported in patent EP4810052A2, “HCRHR2 SELECTIVE POLYPEPTIDES” (Gubra A/S, priority 2023, dated 2026).
Like-named read-outs stand apart in the source and are kept apart here. Starred links: 1 amine or outer side, 2 acyl side, 3 side chain; linkers in the order of their positions; H or OH if unused. Non-standard residues stand in square brackets, D forms with d. Residues, ends and D or L forms follow the SMILES beside them. Groups on a side chain read outwards from the residue. *: point of attachment. C20 diacid = O=C(O)CCCCCCCCCCCCCCCCCCC(=O)*; γGlu = O=C(O)[C@H](CCC(=O)[*:2])N[*:1]; Nle = CCCC[C@H](N)C(=O)O; AEEA = NCCOCCOCC(=O)O

Key:
[1] = target: T1, hCRHR1 (Homo sapiens, UniProt P34998); experiment: HTRF cAMP assay, determination of hCRHR1 potency (peptide libraries 5 conc., purified peptides 11 conc.); assay type: cell-based
T1 sequence (P34998 24-415): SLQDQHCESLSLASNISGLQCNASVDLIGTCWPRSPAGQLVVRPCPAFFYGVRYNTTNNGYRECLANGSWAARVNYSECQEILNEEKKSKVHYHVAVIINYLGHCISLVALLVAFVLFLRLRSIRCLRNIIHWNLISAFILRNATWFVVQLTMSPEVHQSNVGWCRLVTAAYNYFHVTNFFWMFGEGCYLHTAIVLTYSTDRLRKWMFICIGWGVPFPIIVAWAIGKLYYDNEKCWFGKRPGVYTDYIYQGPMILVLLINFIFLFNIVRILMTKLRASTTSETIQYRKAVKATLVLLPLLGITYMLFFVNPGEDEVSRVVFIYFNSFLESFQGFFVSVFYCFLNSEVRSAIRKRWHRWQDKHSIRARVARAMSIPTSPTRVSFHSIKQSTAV
Procedure, shortened: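 Cellular cAMP was read by time-resolved FRET between d2-labelled cAMP and cryptate anti-cAMP antibody. The cells were freshly thawed suspension CHO-K1 cells stably expressing human CRHR1.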

[2] = target: T2, hCRHR2 (Homo sapiens, UniProt Q13324); experiment: HTRF cAMP assay, determination of hCRHR2 potency (peptide libraries 5 conc., purified peptides 11 conc.); assay type: cell-based
T2 sequence (Q13324 1-411): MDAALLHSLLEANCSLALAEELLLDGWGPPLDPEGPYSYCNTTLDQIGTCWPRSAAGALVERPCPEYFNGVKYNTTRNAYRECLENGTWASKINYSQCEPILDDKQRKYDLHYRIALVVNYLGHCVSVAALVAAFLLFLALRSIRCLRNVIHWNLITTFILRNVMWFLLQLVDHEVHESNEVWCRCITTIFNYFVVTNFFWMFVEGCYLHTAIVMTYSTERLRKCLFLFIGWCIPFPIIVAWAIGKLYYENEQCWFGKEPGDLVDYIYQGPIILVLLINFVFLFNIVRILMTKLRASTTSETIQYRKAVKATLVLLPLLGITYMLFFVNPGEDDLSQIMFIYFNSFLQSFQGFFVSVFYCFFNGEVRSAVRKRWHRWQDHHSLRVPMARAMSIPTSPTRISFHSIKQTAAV
Procedure, shortened: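 Read-out was HTRF competitive cAMP detection (d2-labelled cAMP, cryptate-labelled antibody) in suspended, freshly thawed CHO-K1 cells stably carrying human CRHR2.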

[3] = library peptides, matched molecular pairs L vs Nle in position X^38, read-out: Potency hCRHR1 pEC50 (converted)
[4] = library peptides, matched molecular pairs L vs Nle in position X^38, read-out: Potency hCRHR2 pEC50 (converted)

Structure (SMILES) | EC50 [1, 3] | EC50 [2, 4] | EC50 [1] | EC50 [2]
CC[C@H](C)[C@H](N)C(=O)N[C@H](C(=O)N[C@@H](CC(C)C)C(=O)N[C@@H](CO)C(=O)N[C@@H](CC(C)C)C(=O)N[C@@H](CC(=O)O)C(=O)N[C@H](C(=O)N1CCC[C@H]1C(=O)N[C@H](C(=O)NCC(=O)N[C@@H](CC(C)C)C(=O)N[C@@H](CC(C)C)C(=O)N[C@@H](CCC(N)=O)C(=O)N[C@H](C(=O)N[C@@H](CC(C)C)C(=O)N[C@@H](CC(C)C)C(=O)N[C@@H](CCC(=O)O)C(=O)N[C@@H](CCC(N)=O)C(=O)N[C@@H](C)C(=O)N[C@@H](CCCNC(=N)N)C(=O)N[C@@H](C)C(=O)N[C@@H](CCC(N)=O)C(=O)N[C@@H](C)C(=O)N[C@@H](C)C(=O)N[C@@H](CCCNC(=N)N)C(=O)N[C@@H](CCC(=O)O)C(=O)N[C@@H](CCC(N)=O)C(=O)N[C@@H](C)C(=O)N[C@@H](CCCCNC(=O)COCCOCCNC(=O)COCCOCCNC(=O)CC[C@H](NC(=O)CC[C@H](NC(=O)CCCCCCCCCCCCCCCCCCC(=O)O)C(=O)O)C(=O)O)C(=O)N[C@H](C(=O)N[C@@H](CC(N)=O)C(=O)N[C@@H](C)C(=O)N[C@@H](CCC(=O)O)C(=O)N[C@H](C(=O)N[C@@H](CC(C)C)C(=O)N[C@@H](C)C(=O)N[C@@H](CCC(=O)O)C(=O)N[C@H](C(N)=O)C(C)C)[C@@H](C)CC)[C@@H](C)O)[C@@H](C)CC)[C@@H](C)CC)C(C)C)C(C)C [compound 62] (H-IVLSLDVPIGLLQILLEQARAQAAREQAK([AEEA-AEEA-γGlu-γGlu-C20 diacid])TNAEILAEV-NH2) | 25100 nM | 0.316 nM |  | 
CCCC[C@H](NC(=O)[C@@H](NC(=O)[C@H](CCC(=O)O)NC(=O)[C@H](C)NC(=O)[C@H](CC(N)=O)NC(=O)[C@@H](NC(=O)[C@H](CCCCNC(=O)COCCOCCNC(=O)COCCOCCNC(=O)CC[C@H](NC(=O)CC[C@H](NC(=O)CCCCCCCCCCCCCCCCCCC(=O)O)C(=O)O)C(=O)O)NC(=O)[C@H](C)NC(=O)[C@H](CCC(N)=O)NC(=O)[C@H](CCC(=O)O)NC(=O)[C@H](CCCNC(=N)N)NC(=O)[C@H](C)NC(=O)[C@H](C)NC(=O)[C@H](CCC(N)=O)NC(=O)[C@H](C)NC(=O)[C@H](CCCNC(=N)N)NC(=O)[C@H](C)NC(=O)[C@H](CCC(N)=O)NC(=O)[C@H](CCC(=O)O)NC(=O)[C@H](CC(C)C)NC(=O)[C@H](CC(C)C)NC(=O)[C@@H](NC(=O)[C@H](CCC(N)=O)NC(=O)[C@H](CC(C)C)NC(=O)[C@H](CC(C)C)NC(=O)CNC(=O)[C@@H](NC(=O)[C@@H]1CCCN1C(=O)[C@@H](NC(=O)[C@H](CC(=O)O)NC(=O)[C@H](CC(C)C)NC(=O)[C@H](CO)NC(=O)[C@H](CC(C)C)NC(=O)[C@@H](NC(=O)[C@@H](N)[C@@H](C)CC)C(C)C)C(C)C)[C@@H](C)CC)[C@@H](C)CC)[C@@H](C)O)[C@@H](C)CC)C(=O)N[C@@H](C)C(=O)N[C@@H](CCC(=O)O)C(=O)N[C@H](C(N)=O)C(C)C [compound 63] (H-IVLSLDVPIGLLQILLEQARAQAAREQAK([AEEA-AEEA-γGlu-γGlu-C20 diacid])TNAEI[Nle]AEV-NH2) | 501 nM | 0.251 nM |  | 
CC[C@H](C)[C@H](N)C(=O)N[C@H](C(=O)N[C@@H](CC(C)C)C(=O)N[C@@H](CO)C(=O)N[C@@H](CC(C)C)C(=O)N[C@@H](CC(=O)O)C(=O)N[C@H](C(=O)N1CCC[C@H]1C(=O)N[C@H](C(=O)NCC(=O)N[C@@H](CC(C)C)C(=O)N[C@@H](CC(C)C)C(=O)N[C@@H](CCC(N)=O)C(=O)N[C@H](C(=O)N[C@@H](CC(C)C)C(=O)N[C@@H](CC(C)C)C(=O)N[C@@H](CCC(=O)O)C(=O)N[C@@H](CCC(N)=O)C(=O)N[C@@H](C)C(=O)N[C@@H](CCCNC(=N)N)C(=O)N[C@@H](C)C(=O)N[C@@H](CCCNC(=N)N)C(=O)N[C@@H](C)C(=O)N[C@@H](CCC(N)=O)C(=O)N[C@@H](CCCNC(=N)N)C(=O)N[C@@H](CCC(=O)O)C(=O)N[C@@H](CCC(N)=O)C(=O)N[C@@H](C)C(=O)N[C@@H](CCCCNC(=O)COCCOCCNC(=O)COCCOCCNC(=O)CC[C@H](NC(=O)CC[C@H](NC(=O)CCCCCCCCCCCCCCCCCCC(=O)O)C(=O)O)C(=O)O)C(=O)N[C@H](C(=O)N[C@@H](CC(N)=O)C(=O)N[C@@H](C)C(=O)N[C@@H](CCC(=O)O)C(=O)N[C@H](C(=O)N[C@@H](CC(C)C)C(=O)N[C@@H](C)C(=O)N[C@@H](CCC(=O)O)C(=O)N[C@H](C(N)=O)[C@@H](C)CC)[C@@H](C)CC)[C@@H](C)O)[C@@H](C)CC)[C@@H](C)CC)C(C)C)C(C)C [compound 64] (H-IVLSLDVPIGLLQILLEQARARAQREQAK([AEEA-AEEA-γGlu-γGlu-C20 diacid])TNAEILAEI-NH2) | 25100 nM | 0.126 nM |  | 
CCCC[C@H](NC(=O)[C@@H](NC(=O)[C@H](CCC(=O)O)NC(=O)[C@H](C)NC(=O)[C@H](CC(N)=O)NC(=O)[C@@H](NC(=O)[C@H](CCCCNC(=O)COCCOCCNC(=O)COCCOCCNC(=O)CC[C@H](NC(=O)CC[C@H](NC(=O)CCCCCCCCCCCCCCCCCCC(=O)O)C(=O)O)C(=O)O)NC(=O)[C@H](C)NC(=O)[C@H](CCC(N)=O)NC(=O)[C@H](CCC(=O)O)NC(=O)[C@H](CCCNC(=N)N)NC(=O)[C@H](CCC(N)=O)NC(=O)[C@H](C)NC(=O)[C@H](CCCNC(=N)N)NC(=O)[C@H](C)NC(=O)[C@H](CCCNC(=N)N)NC(=O)[C@H](C)NC(=O)[C@H](CCC(N)=O)NC(=O)[C@H](CCC(=O)O)NC(=O)[C@H](CC(C)C)NC(=O)[C@H](CC(C)C)NC(=O)[C@@H](NC(=O)[C@H](CCC(N)=O)NC(=O)[C@H](CC(C)C)NC(=O)[C@H](CC(C)C)NC(=O)CNC(=O)[C@@H](NC(=O)[C@@H]1CCCN1C(=O)[C@@H](NC(=O)[C@H](CC(=O)O)NC(=O)[C@H](CC(C)C)NC(=O)[C@H](CO)NC(=O)[C@H](CC(C)C)NC(=O)[C@@H](NC(=O)[C@@H](N)[C@@H](C)CC)C(C)C)C(C)C)[C@@H](C)CC)[C@@H](C)CC)[C@@H](C)O)[C@@H](C)CC)C(=O)N[C@@H](C)C(=O)N[C@@H](CCC(=O)O)C(=O)N[C@H](C(N)=O)[C@@H](C)CC [compound 65] (H-IVLSLDVPIGLLQILLEQARARAQREQAK([AEEA-AEEA-γGlu-γGlu-C20 diacid])TNAEI[Nle]AEI-NH2) | 158 nM | 0.1 nM |  | 
CC[C@H](C)[C@H](N)C(=O)N[C@H](C(=O)N[C@@H](CC(C)C)C(=O)N[C@@H](CO)C(=O)N[C@@H](CC(C)C)C(=O)N[C@@H](CC(=O)O)C(=O)N[C@H](C(=O)N1CCC[C@H]1C(=O)N[C@H](C(=O)NCC(=O)N[C@@H](CC(C)C)C(=O)N[C@@H](CC(C)C)C(=O)N[C@@H](CCC(N)=O)C(=O)N[C@H](C(=O)N[C@@H](CC(C)C)C(=O)N[C@@H](CC(C)C)C(=O)N[C@@H](CCC(=O)O)C(=O)N[C@@H](CCC(N)=O)C(=O)N[C@@H](C)C(=O)N[C@@H](CCCNC(=N)N)C(=O)N[C@@H](C)C(=O)N[C@@H](CCCNC(=N)N)C(=O)N[C@@H](C)C(=O)N[C@@H](C)C(=O)N[C@@H](CCCNC(=N)N)C(=O)N[C@@H](CCC(=O)O)C(=O)N[C@@H](CCCNC(=N)N)C(=O)N[C@@H](C)C(=O)N[C@@H](CCCCNC(=O)COCCOCCNC(=O)COCCOCCNC(=O)CC[C@H](NC(=O)CC[C@H](NC(=O)CCCCCCCCCCCCCCCCCCC(=O)O)C(=O)O)C(=O)O)C(=O)N[C@H](C(=O)N[C@@H](CC(N)=O)C(=O)N[C@@H](C)C(=O)N[C@@H](CCC(=O)O)C(=O)N[C@H](C(=O)N[C@@H](CC(C)C)C(=O)N[C@@H](C)C(=O)N[C@@H](CCC(=O)O)C(=O)N[C@H](C(N)=O)C(C)C)[C@@H](C)CC)[C@@H](C)O)[C@@H](C)CC)[C@@H](C)CC)C(C)C)C(C)C [compound 66] (H-IVLSLDVPIGLLQILLEQARARAARERAK([AEEA-AEEA-γGlu-γGlu-C20 diacid])TNAEILAEV-NH2) |  |  | 50100 nM | 0.316 nM
